For assay [1], the system named is NRAS (RNA, G4) UGUGGGAGGGGCGGGUCUGGGUGC
The assay is described as follows: CD melting. The settings on record: Li+ (10 mM LiCl, 100 mM lithium cacodylate); pH 7; NRAS 5 µM, Ru-PIC 2 equivalents (10 µM); no stabilization observed.

In assay [2] the test system is CMYC (DNA, G4) TGGGGAGGGTGGGGAGGGTGGGGAAGG
Kind of assay: CD melting. As to conditions: Li+ (10 mM LiCl, 100 mM lithium cacodylate; supplement: 90 mM LiCl, 10 mM cacodylate); pH 7; CMYC 5 µM, Ru-PIC 2 equivalents (10 µM).

Assay [3] shares this test system. Kind of assay: absorbance and luminescence titration. As to conditions: K+ (10 mM potassium phosphate, 100 mM KCl); Ru-PIC 10 µM, CMYC 0-30 µM; no constant.
In assay [4] the test system is NRAS (RNA, G4) UGUGGGAGGGGCGGGUCUGGGUGC
Kind of assay: luminescence and absorbance titration. As to conditions: K+ (10 mM potassium phosphate, 100 mM KCl); RNase-free buffer; Ru-PIC 2 µM, NRAS 0-6 µM; negligible spectral change; no constant.

Experimental findings from PMC12188320 (2025) are described below.

Turning to `O=C(O)c1ccc(-c2nc3c4cccnc4c4ncccc4c3[nH]2)cc1.[Ru+2].c1ccc(-c2ccccn2)nc1.c1ccc(-c2ccccn2)nc1`, the values for the binding result in assay [1], in assay [3] and in assay [4] were “no”, “yes” and “weak”, respectively. Besides, the ΔTm in assay [2] was 9.1 ± 0.3 °C.

For orientation: ΔTm means the change in melting temperature against a reference sample.
